Measured values: patent US8377667B2, “Microorganisms for the production of 1,4-butanediol, 4-hydroxybutanal, 4-hydroxybutyryl-CoA, putrescine and related compounds, and methods related thereto” (Genomatica, Inc., priority 2009, dated 2013)

Key:
[1] = system: aminotransferase from Leishmania mexicana; details: activity considered 100% on tyrosine; cited from earlier work
[2] = molecular target: T1, BK (Clostridium acetobutylicum, UniProt Q45829); experiment: Butyrate kinase (BK) enzyme activity, butyrate to butyryl-phosphate; format: biochemical, C. acetobutylicum; details: extracts from cells containing pZA33-0020-0021
T1 construct: made in house; host or cells: E. coli, crude cell extract (pZA33-0020-0021)
T1 sequence (Q45829 1-355): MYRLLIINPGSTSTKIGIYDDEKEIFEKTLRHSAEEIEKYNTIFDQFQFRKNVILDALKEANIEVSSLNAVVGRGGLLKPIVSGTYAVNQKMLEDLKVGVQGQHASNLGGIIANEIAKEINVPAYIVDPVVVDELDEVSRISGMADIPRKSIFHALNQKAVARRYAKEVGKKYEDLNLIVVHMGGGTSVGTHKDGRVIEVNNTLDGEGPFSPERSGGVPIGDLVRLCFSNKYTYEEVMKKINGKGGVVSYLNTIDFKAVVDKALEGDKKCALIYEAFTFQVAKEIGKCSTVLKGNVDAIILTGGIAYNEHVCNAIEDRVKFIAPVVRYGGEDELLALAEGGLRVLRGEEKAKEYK
Procedure: The enzyme activity of PTB is measured in the direction of butyryl-CoA to butyryl-phosphate as described in Cary et al. J. Bacteriol. 170:4613-4618 (1988). It provides inorganic phosphate for the conversion, and follows the increase in free CoA with the reagent 5,5′-dithiobis-(2-nitrobenzoic acid), or DTNB. DTNB rapidly reacts with thiol groups such as free CoA to release the yellow-colored 2-nitro-5-mercaptobenzoic acid (TNB), which absorbs at 412 nm with a molar extinction coefficient of 14,140 M cm^−1. The assay buffer contained 150 mM potassium phosphate at pH 7.4, 0.1 mM DTNB, and 0.2 mM butyryl-CoA, and the reaction was started by addition of 2 to 50 μL cell extract. The enzyme activity of BK is measured in the direction of butyrate to butyryl-phosphate formation at the expense of ATP. The procedure is similar to the assay for acetate kinase previously described Rose et al., J. Biol. Chem. 211:737-756 (1954). However we have found another acetate kinase enzyme assay protocol provided by Sigma to be more useful and sensitive. […] The reaction was started by adding 2 to 50 μL cell extract, and the reaction was monitored based on the decrease in absorbance at 340 nm indicating NADH oxidation. […]

| Molecule | activity (substrate specificity) [1] | specific activity of BK [2] |
| --- | --- | --- |
| CC(C)C[C@H](N)C(=O)O [leucine] | 25% |  |
| N[C@@H](Cc1c[nH]c2ccccc12)C(=O)O [tryptophan] | 85% |  |
| N[C@@H](Cc1ccccc1)C(=O)O [phenylalanine] | 90% |  |
| CSCC[C@H](N)C(=O)O [methionine] | 25% |  |
| N[C@@H](Cc1ccc(O)cc1)C(=O)O [tyrosine] | 100% |  |
| BK: Butyrate kinase from C. acetobutylicum (gene 0021), native ptb/bk operon expressed in pZA33; cell extract (protein, listed as Clostridium acetobutylicum) MYRLLIINPGSTSTKIGIYDDEKEIFEKTLRHSAEEIEKYNTIFDQFQFRKNVILDALKEANIEVSSLNAVVGRGGLLKPIVSGTYAVNQKMLEDLKVGVQGQHASNLGGIIANEIAKEINVPAYIVDPVVVDELDEVSRISGMADIPRKSIFHALNQKAVARRYAKEVGKKYEDLNLIVVHMGGGTSVGTHKDGRVIEVNNTLDGEGPFSPERSGGVPIGDLVRLCFSNKYTYEEVMKKINGKGGVVSYLNTIDFKAVVDKALEGDKKCALIYEAFTFQVAKEIGKCSTVLKGNVDAIILTGGIAYNEHVCNAIEDRVKFIAPVVRYGGEDELLALAEGGLRVLRGEEKAKEYK |  | approximately 65 U/mg |
